# ChEMBL document CHEMBL5291721, “A preclinical secondary pharmacology resource illuminates target-adverse drug reaction associations of marketed drugs” (Nat Commun, 2023)
# Tests used:
# [1] = target: T1, Alpha-2C adrenergic receptor (Homo sapiens, UniProt P18825); type: functional
# T1 sequence (P18825 whole entry): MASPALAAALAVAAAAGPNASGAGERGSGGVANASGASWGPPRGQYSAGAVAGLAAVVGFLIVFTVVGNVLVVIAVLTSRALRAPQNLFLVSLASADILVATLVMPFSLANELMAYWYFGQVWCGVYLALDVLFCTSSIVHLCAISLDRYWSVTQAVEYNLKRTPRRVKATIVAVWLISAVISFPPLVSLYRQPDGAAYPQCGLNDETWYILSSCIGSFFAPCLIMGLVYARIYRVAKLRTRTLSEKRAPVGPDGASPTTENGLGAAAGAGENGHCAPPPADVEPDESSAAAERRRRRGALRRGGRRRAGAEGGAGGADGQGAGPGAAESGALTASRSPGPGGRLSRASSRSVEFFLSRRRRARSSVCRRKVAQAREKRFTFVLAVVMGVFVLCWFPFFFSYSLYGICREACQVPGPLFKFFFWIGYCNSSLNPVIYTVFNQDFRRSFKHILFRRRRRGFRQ
# [2] = target: Acetylcholinesterase (Homo sapiens, UniProt P22303); type: functional
# Also: assay procedure not described here.
# Sequence of Acetylcholinesterase (P22303 whole entry): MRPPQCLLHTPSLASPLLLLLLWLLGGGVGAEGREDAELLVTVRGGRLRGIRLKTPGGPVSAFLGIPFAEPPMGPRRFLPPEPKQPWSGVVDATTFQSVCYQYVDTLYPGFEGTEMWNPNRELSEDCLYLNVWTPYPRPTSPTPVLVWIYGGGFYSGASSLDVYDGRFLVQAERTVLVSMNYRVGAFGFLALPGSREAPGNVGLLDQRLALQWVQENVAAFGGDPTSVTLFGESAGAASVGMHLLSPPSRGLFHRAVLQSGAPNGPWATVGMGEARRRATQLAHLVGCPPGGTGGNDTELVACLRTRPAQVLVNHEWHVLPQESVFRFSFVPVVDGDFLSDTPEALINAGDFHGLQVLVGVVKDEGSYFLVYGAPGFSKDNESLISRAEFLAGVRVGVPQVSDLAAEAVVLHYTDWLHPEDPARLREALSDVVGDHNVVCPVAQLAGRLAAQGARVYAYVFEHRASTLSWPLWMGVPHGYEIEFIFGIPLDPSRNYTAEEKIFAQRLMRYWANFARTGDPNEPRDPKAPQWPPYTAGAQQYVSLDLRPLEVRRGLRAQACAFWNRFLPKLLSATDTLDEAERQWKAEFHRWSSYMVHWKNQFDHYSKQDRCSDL
AC50 [1] [µM],SMILES,AC50 [2] [µM]
9.3,Cc1[nH]cnc1CN1CCc2c(c3ccccc3n2C)C1=O [ALOSETRON],–
–,C=CC(=O)N1CCC[C@@H](n2nc(-c3ccc(Oc4ccccc4)cc3)c3c(N)ncnc32)C1 [IBRUTINIB],> 30
–,CN1C[C@H](CNC(=O)OCc2ccccc2)C[C@@H]2c3cccc4c3c(cn4C)C[C@H]21 [METERGOLINE],1.1
